Assay results as given in ChEMBL document CHEMBL5143573, “Cyclohumulanoid Sesquiterpenes Induced by the Noncompetitive Coculture of Phellinus orientoasiaticus and Xylodon flaviporus” (J Nat Prod, 2022).

Assays:
RAW264.7 [1] = assay: Antiinflammatory activity in mouse RAW264.7 cells assessed as inhibition of LPS-induced NO production incubated for 20 hrs by Griess reagent based assay; format: functional, cell-based; conditions: dose 10-100 µM, DDE = dose-dependent effect
Caco-2 = assay: Cytotoxicity against human Caco-2 cells assessed as reduction in cell viability at 10 to 100 uM incubated for 48 hrs by MTT assay; format: toxicity, cell-based; conditions: caco-2, 48 h, dose 10-100 µM
RAW264.7 [2] = assay: Cytotoxicity against LPS-stimulated mouse RAW264.7 cells assessed as reduction in cell viability at 10 to 100 uM incubated for 20 hrs by MTT assay; format: toxicity, cell-based; conditions: raw264.7, 20 h, dose 10-100 µM
RAW264.7 [3] = assay: Antiinflammatory activity in mouse RAW264.7 cells assessed as inhibition of LPS-induced NO production at 100 uM incubated for 20 hrs by Griess reagent based assay relative to control; format: functional

Row | Structure (SMILES) | Activity (RAW264.7 [1]) | Activity (Caco-2) | Activity (RAW264.7 [2]) | inhibition at 100 µM (RAW264.7 [3]) [%]
1 | CC1=C2C[C@@](C)(C(=O)O)C[C@H]2C[C@@H](CO)C12CC2 | Dde | Non-Toxic | Non-Toxic | –
2 | CC1=C2C[C@@](C)(C(=O)O)C[C@H]2C[C@]2(C)CC[C@]12O | Dde | Non-Toxic | Non-Toxic | –
3 | CC1=C2C[C@@](C)(C(=O)O)C[C@H]2C[C@]2(CO)CC[C@]12O | Dde | Non-Toxic | Non-Toxic | –
4 | CC1=C2C[C@@](C)(C(=O)O)C[C@H]2C[C@]2(C)C[C@H](O)[C@]12O | Dde | Non-Toxic | Non-Toxic | 36.4
5 | C[C@H]1CC[C@H](CO)[C@H](CO)C2=C[C@](C)(CO)C[C@H]21 | Dde | Non-Toxic | Non-Toxic | 38
6 | C[C@H]1CC[C@H](CO)C(CO)=C2[C@H]1CC(C)(C)[C@@H]2O | Dde | Non-Toxic | Non-Toxic | –
7 | CC1=C(CO)[C@H](C)C[C@@H]2C[C@](C)(C(=O)O)C=C12 | Dde | Non-Toxic | Non-Toxic | 34.8
